For data set [1], the system named is Vero cells. Briefly: Cytotoxicity determination in Vero cells monitored by cytopathic effect (CPE). The class given is cell-based. Particulars: 48 h, Reed & Muench, concentration that inhibits 50% cellular growth, average ± SD, n=3. As to the method: Vero cells were purchased from the American Type Culture Collection and cultured in Minimum Essential Medium (MEM) supplemented with 10% Fetal Bovine Serum (FBS) and antibiotics (100 U/mL penicillin G, 100 μg/mL streptomycin). Enterovirus 71 (EV 71) strain SZ-98 was kindly provided by Dr. Qi Jin, Institute of Pathogen Biology, Chinese Academy of Medical Science and Peking Union Medical School. […] Enterovirus 71 (EV 71) strain JS-52-3 was kindly provided by Dr. Xiang-zhong Ye, Beijing Wantai Biological Pharmacy Enterprise Co., Ltd. All Enterovirus 71 strains were propagated in Vero cells.
(§1) All compounds were dissolved in DMSO at 20 mg/mL as a stock solution and further diluted in culture medium prior to use. The initial concentration in all cytotoxicity assay was 200 µg/mL, and inhibition assay for anti-EV71 experiments was from maximum non-toxic concentration, and proceeded serially 3-fold dilution with culture medium. All cytotoxicity and activity assay for each compound was repeated for three times, and the data was indicated as average ± SD.
The cytotoxicity of compounds in the presence of Vero cells was monitored by cytopathic effect (CPE). Vero cells (2.5 × 10^4/well) were plated into a 96-well plate. A total of 24 h later, the monolayer cells were incubated in the presence of various concentrations of test compounds. […] The median toxic concentration (TC50) was calculated by Reed & Muench analyses.
On the technique in general: Protection from cytopathic effect is a common read-out in antiviral testing.

Data set [2] relates to EV 71 strain SZ-98 (genotype C4). Briefly: Anti EV 71 activity assay (CPE, Reed & Muench) in Vero cells, strain SZ-98. It is filed as cell-based, Enterovirus 71. Particulars: for IC50: EV 71 strain SZ-98, Vero cells, 100 TCID50, CPE, average ± SD, n=3; for SI SZ-98: selectivity index TC50/IC50, strain SZ-98, "-" stands for no antiviral selectivity. As to the method: (§2) The EV 71 was divided into three genotypes A, B and C based on nucleotide sequence comparisons, and genotypes B and C were subdivided into B1-B5 and C1-C5 [6, 10]. Genotype C is the most common genotype found in mainland China, especially the C4 subgenotype. Consequently, the intermediate compounds 1a, 1c and 1e, and the final products 2a–c, 3a–g, and 5a–f were evaluated for their anti-EV 71 activity in Vero cells against genotypes C4 (strains SZ-98 and JS-52-3), C2 (strain H) and A (strain BrCr). […] The IC50 values were calculated by the Reed and Muench method, and the cytotoxicity was monitored by the CPE method.
(§3) Vero cells were purchased from the American Type Culture Collection and cultured in Minimum Essential Medium (MEM) supplemented with 10% Fetal Bovine Serum (FBS) and antibiotics (100 U/mL penicillin G, 100 μg/mL streptomycin). Enterovirus 71 (EV 71) strain SZ-98 was kindly provided by Dr. Qi Jin, Institute of Pathogen Biology, Chinese Academy of Medical Science and Peking Union Medical School. Enterovirus 71 (EV 71) strain BrCr (VR-1775) was purchased from the American Type Culture Collection. Enterovirus 71 (EV 71) strain JS-52-3 was kindly provided by Dr. Xiang-zhong Ye, Beijing Wantai Biological Pharmacy Enterprise Co., Ltd. All Enterovirus 71 strains were propagated in Vero cells.
as §1
(§4) Confluent Vero cells grown in 96-well microplates were infected respectively with 100 median tissue culture infective dose (TCID50) EV 71. After 1 h adsorption at 37 °C, the monolayers were washed by PBS and incubated at 37 °C in the maintenance medium with or without different concentrations of test compounds.

The test system of data set [3] is EV 71 strain JS-52-3 (genotype C4). Briefly: Anti EV 71 activity assay (CPE, Reed & Muench) in Vero cells, strain JS-52-3. The class given is cell-based, Enterovirus 71. Particulars: for IC50: EV 71 strain JS-52-3, Vero cells, 100 TCID50, CPE, average ± SD, n=3; for SI JS-52-3: selectivity index TC50/IC50, strain JS-52-3, "-" stands for no antiviral selectivity. As to the method: as §2, §3, §1, §4

Data set [4] concerns EV 71 strain H (genotype C2). Briefly: Anti EV 71 activity assay (CPE, Reed & Muench) in Vero cells, strain H. It is filed as cell-based, Enterovirus 71. As to conditions: for IC50: EV 71 strain H (C2 genotype), Vero cells, 100 TCID50, CPE, average ± SD, n=3; for SI H: selectivity index TC50/IC50, strain H, "-" stands for no antiviral selectivity. As to the method:
as §2, §3, §1, §4

Data set [5] has as its system EV 71 strain BrCr (genotype A). Briefly: Anti EV 71 activity assay (CPE, Reed & Muench) in Vero cells, strain BrCr. It is filed as cell-based, Enterovirus 71. As to conditions: for IC50: EV 71 strain BrCr, Vero cells, 100 TCID50, CPE, average ± SD, n=3; for SI BrCr: selectivity index TC50/IC50, strain BrCr, "-" stands for no antiviral selectivity. As to the method:
as §2, §3, §1, §4

In data set [6] the test system is EV 71 strains SZ-98, JS-52-3, H, BrCr. The experiment in a line: Anti EV 71 activity assay in Vero cells, summary over the four strains tested. As to conditions: for selectivity index (SI) values (range over strains): TC50/IC50, range over the EV 71 strains tested. It is filed as cell-based, Enterovirus 71. As to the method: as §2, §3, §1, §4
For data set [7], the system named is 16 enteroviruses. Particulars: cited from earlier work.

Where only a bound is given, the exact number is not on record here.

In data set [1], `CCC(=O)Nc1cc(C(=O)Nc2ccc(Br)cc2)ccc1OC` [Compound 5c] registered a TC50 of 530 ± 0.0 µM. For the same compound, the IC50 in data set [2] is 11 ± 0.8 µM; in data set [2] (Enterovirus A, Vero) it was around 15 µM; in data set [3], 20 ± 3.1 µM; in data set [3] (Enterovirus A, Vero) it was around 15 µM; in data set [4], 8.4 ± 1.2 µM; in data set [4] (Enterovirus A, Vero) it was around 15 µM. This compound also yielded an IC50 in data set [5] (Enterovirus A, Vero) of 34 µM. Also, in data set [2], the “SI SZ-98” value was determined as 47. In addition, the “SI JS-52-3” value in data set [3] worked out at 27. For the same compound, the “SI H” value in data set [4] is 63. Moreover, the “SI BrCr” value in data set [5] worked out at 16. In addition, the “selectivity index (SI) values (range over strains)” value (shortened to “selectivity index (SI) values”) in data set [6] is given as 16–63.

`CCOC(=O)c1ccc(OCCC2CCN(c3ccc(C)nn3)CC2)cc1` [Pirodavir, pirodavir, reference compound] displayed a TC50 in data set [1] of 31 ± 2.2 µM. The IC50 in data set [2] (Enterovirus A, Vero) was 1.2 ± 0.2 µM; in data set [3] (Enterovirus A, Vero), 1 ± 0.2 µM; in data set [4] (Enterovirus A, Vero), 0.6 ± 0.1 µM; in data set [5] (Enterovirus A, Vero) it was 1 ± 0.2 µM. The “concentration effective against 80% of 16 enteroviruses tested” value in data set [7] was 1.3 µg/mL.

Compound `CCCNc1cc(C(=O)Nc2cc(OC)c(OC)c(OC)c2)ccc1OC` [Compound 3g, 4-Methoxy-3-(propylamino)-N-(3,4,5-trimethoxyphenyl)benzamide] displayed a melting point of 164 to 167 °C. The same compound gave a TC50 in data set [1] of 530 µM. In addition, the 50% inhibitory concentration (IC50) in data set [2] (Enterovirus A, Vero) is above 59 µM. In data set [3] (Enterovirus A, Vero), this compound returned a half-maximal inhibitory concentration (IC50) of 34 ± 2.5 µM. Moreover, the “SI JS-52-3” value in data set [3] came to 16. This compound came in with an IC50 in data set [4] (Enterovirus A, Vero) of around 15 µM. Moreover, the “SI H” value in data set [4] came out at 35. Also, in data set [5], inhibition was half-maximal at 20 ± 3.1 µM (IC50) and the “SI BrCr” value worked out at 27. Further, the IC50 in data set [5] (Enterovirus A, Vero) is around 15 µM. For the same compound, the “selectivity index (SI) values” value in data set [6] was 16–35.

For `COc1ccc(C(=O)NC2CCCCC2)cc1NC(=O)C(C)F` (centres unmarked) [Compound 2b, N-Cyclohexyl-3-(2-fluoropropanamido)-4-methoxybenzamide], the melting point fell in the range of 192 to 194 °C. Besides, the TC50 in data set [1] is above 620 µM. For the same compound, the IC50 in data set [2] (Enterovirus A, Vero) was above 620 µM. The compound further yielded an IC50 in data set [3] (Enterovirus A, Vero) of 210 µM. Besides, in data set [3], the “SI JS-52-3” value is listed as above 3.0. Further, in data set [4] (Enterovirus A, Vero), the IC50 is 430 ± 36 µM. In addition, the “SI H” value in data set [4] is above 1.4. The same compound yielded an IC50 in data set [5] (Enterovirus A, Vero) of 360 ± 26 µM. Besides, in data set [5], the “SI BrCr” value is listed as above 1.7. For the same compound, the “anti-EV 71 activity (in words)” value in data set [6] (structure-activity discussion) is on record as “no anti-EV 71 activity was observed”.

Compound `COc1ccc(C(=O)Nc2ccc(Br)cc2)cc1N` [Compound 1e, 3-Amino-N-(4-bromophenyl)-4-methoxybenzamide] came in with a melting point of 190 to 192 °C. Further, the TC50 in data set [1] amounted to 620 ± 0.0 µM. Also, the IC50 in data set [2] (Enterovirus A, Vero) came out at 12 ± 1.1 µM. Besides, the “SI SZ-98” value in data set [2] turned out to be 51. The midpoint of inhibition in data set [3] (Enterovirus A, Vero), the IC50, lay at 9.8 ± 0.4 µM. Further, the “SI JS-52-3” value in data set [3] came out at 64. The IC50 in data set [4] (Enterovirus A, Vero) was determined as 5.7 ± 0.8 µM. In addition, in data set [4], the “SI H” value was 110. This compound also yielded an IC50 in data set [5] (Enterovirus A, Vero) of 9.1 ± 1.4 µM. Besides, the “SI BrCr” value in data set [5] was determined as 68. For the same compound, the “selectivity index (SI) values” value in data set [6] is 51–110.

The compound `COc1ccc(C(=O)Nc2ccc(Cl)cc2)cc1N` [Compound 1c, 3-Amino-N-(4-chlorophenyl)-4-methoxybenzamide] gave a melting point of 152 to 154 °C. The compound further had a TC50 in data set [1] of 520 ± 29 µM. The IC50 in data set [2] (Enterovirus A, Vero) is around 15 µM. Moreover, the “SI SZ-98” value in data set [2] was determined as 36. The compound also yielded an IC50 in data set [3] (Enterovirus A, Vero) of 46 ± 5.7 µM. Further, the “SI JS-52-3” value in data set [3] worked out at 12. Moreover, the IC50 in data set [4] (Enterovirus A, Vero) came to 34 ± 3.6 µM. In addition, the “SI H” value in data set [4] was 16. Also, half-maximal inhibition in data set [5] (Enterovirus A, Vero) (IC50) required 56 ± 4.2 µM. Moreover, the “SI BrCr” value in data set [5] amounted to 10. In addition, in data set [6], the “selectivity index (SI) values” value is on record as 10–36.

The IC50 is the point on the concentration scale where inhibition reaches its midpoint. The term melting point denotes the temperature, or range, at which the solid turns liquid.

The record behind these values is PMC6270001, “Synthesis and Antiviral Activity of N-Phenylbenzamide Derivatives, a Novel Class of Enterovirus 71 Inhibitors” (Molecules, 2013).
